Results as given in patent US20240425441A9, “MODULATORS OF LIPOXYGENASE AND CYCLOOXYGENASE ENZYME ACTIVITY” (Université de Moncton, priority 2016, published 2024).
Like-named read-outs stand apart in the source and are kept apart here.

Key:
Type in all cases: cell-based
[1] = biological target: T1, 5-lipoxygenase (Homo sapiens (Human), UniProt P09917); experiment: Stimulation of isolated PMN (neutrophils) for 5-LO products; settings: ranges indicate confidence interval, read-out: PMN dose-response
Protocol: Briefly, blood was centrifuged at 300×g for 5 min at room temperature, plasma was collected and erythrocytes were removed after dextran sedimentation.
Isolated PMN (1×10^7 cells/mL) resuspended in Hank's balanced salt solution (HBSS, Lonza, Walkerville, MD) containing 1.6 mM CaCl2) were pre-incubated with test compounds for 5 min at 37° C. in the presence of 1 U/mL of adenosine deaminase. […] Reactions were stopped with the addition of 0.5 volume of cold MeOH:CH3CN (1:1) and 50 ng of PGB2 as internal standard, and samples were stored at −20° C. overnight for protein denaturation. […] Total 5-LO products quantified represents the sum of LTB4, its trans isomers, 20-COOH— and 20-OH-LTB4 and 5-hydroxyeicosatetraenoic acid.

[2] = biological target: COX-2 (Homo sapiens (Human), UniProt P35354); experiment: COX-2 activity, products from LPS-primed human neutrophils; settings: 100% no inhibition, 0% complete inhibition
[3] = biological target: COX-1 (Homo sapiens (Human), UniProt P23219); experiment: COX-1 inhibitory activity in human platelets; settings: read-out: Percent inhibition at 1 μM
[4] = biological target: T1, 5-lipoxygenase; experiment: Ex vivo whole blood stimulation with zymosan; total 5-LO products; settings: zymosan-stimulated whole blood; read-out: Whole blood dose-response
Protocol: Each compound or its diluent was added to heparinized blood obtained from healthy donors (1 mL) at the indicated concentration and incubated for 10 min at 37° C. in a water bath. Following incubations, 125 μL of 40 mg/mL opsonised zymosan was added to each sample, gently vortexed and incubated for 30 min at 37° C. Samples were then centrifuged for 10 min at 960×g at 4° C. Plasma, 350 μL, was removed and added to 1.2 ml of methanol:acetonitrile (1:1) and 50 ng of PGB2 as internal standard. Samples were left overnight at −20° C. for protein denaturation. […] Total 5-LO products quantified represents the sum of LTB4, its trans isomers, 20-COOH— and 20-OH-LTB4 and 5-hydroxyeicosatetraenoic acid.

[5] = biological target: T1, 5-lipoxygenase; experiment: Stimulation of HEK293 cells stably transfected with 5-LO and FLAP; total 5-LO products by HPLC; settings: HEK293 cells expressing 5-LO and FLAP; ranges indicate confidence interval; read-out: HEK Dose-response
Protocol: HEK293 cells were detached by trypsinization and re-suspended in Hank's balanced salt solution containing 1.6 mM CaCl2). Cells (1×10^6 cells/mL) were preincubated at 37° C. with the test compounds or their diluent for 5 minutes and were then stimulated at 37° C. with 10 μM ionophore A23187 and 10 μM AA for 15 min. Stimulations were stopped by adding 0.5 volumes of a methanol:acetonitrile (1:1) solution containing 100 ng/mL each of PGB2 and 19-OH-PGB2 as internal standards, and samples were then kept at −20° C. overnight for protein denaturation. […] Total 5-LO products quantified represents the sum of LTB4, its trans isomers and 5-hydroxyeicosatetraenoic acid.

[6] = read-out: % of control COX-2 activity, n = 1
[7] = read-out: % of control COX-2 activity, n = 2

T1 sequence (P09917 whole entry): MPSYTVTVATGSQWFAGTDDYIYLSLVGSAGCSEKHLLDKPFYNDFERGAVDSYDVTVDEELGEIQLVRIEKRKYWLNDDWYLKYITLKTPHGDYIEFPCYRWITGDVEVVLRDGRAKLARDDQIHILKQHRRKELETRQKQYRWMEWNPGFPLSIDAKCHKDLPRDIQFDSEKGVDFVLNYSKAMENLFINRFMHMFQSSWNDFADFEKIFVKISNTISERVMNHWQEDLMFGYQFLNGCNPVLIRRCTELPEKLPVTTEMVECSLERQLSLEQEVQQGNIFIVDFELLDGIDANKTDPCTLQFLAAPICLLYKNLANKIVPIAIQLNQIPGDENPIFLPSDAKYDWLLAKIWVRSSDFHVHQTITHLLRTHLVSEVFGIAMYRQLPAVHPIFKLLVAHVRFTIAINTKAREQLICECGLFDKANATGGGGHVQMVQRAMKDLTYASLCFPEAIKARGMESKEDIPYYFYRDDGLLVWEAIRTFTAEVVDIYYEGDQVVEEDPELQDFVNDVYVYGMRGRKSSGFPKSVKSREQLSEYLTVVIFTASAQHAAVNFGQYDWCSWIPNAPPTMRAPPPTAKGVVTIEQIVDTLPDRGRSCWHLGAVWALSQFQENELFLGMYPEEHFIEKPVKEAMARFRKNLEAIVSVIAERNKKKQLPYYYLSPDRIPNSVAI
Chain of COX-2 (P35354 18-604): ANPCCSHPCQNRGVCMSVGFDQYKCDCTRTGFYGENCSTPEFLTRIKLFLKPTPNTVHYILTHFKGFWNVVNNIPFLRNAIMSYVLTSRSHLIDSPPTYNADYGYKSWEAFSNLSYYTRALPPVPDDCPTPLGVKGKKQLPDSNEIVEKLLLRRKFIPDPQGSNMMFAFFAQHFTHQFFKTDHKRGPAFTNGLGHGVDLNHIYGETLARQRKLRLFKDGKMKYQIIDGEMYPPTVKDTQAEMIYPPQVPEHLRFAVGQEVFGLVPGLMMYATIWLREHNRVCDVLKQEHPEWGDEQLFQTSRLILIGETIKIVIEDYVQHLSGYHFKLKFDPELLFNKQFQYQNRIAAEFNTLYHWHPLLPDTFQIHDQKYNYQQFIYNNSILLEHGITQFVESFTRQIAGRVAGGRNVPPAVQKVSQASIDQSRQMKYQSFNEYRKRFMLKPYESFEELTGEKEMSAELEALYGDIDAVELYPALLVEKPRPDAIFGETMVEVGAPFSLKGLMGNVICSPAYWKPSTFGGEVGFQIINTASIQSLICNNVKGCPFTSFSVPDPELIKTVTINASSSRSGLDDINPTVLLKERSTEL
Chain of COX-1 (P23219 24-599): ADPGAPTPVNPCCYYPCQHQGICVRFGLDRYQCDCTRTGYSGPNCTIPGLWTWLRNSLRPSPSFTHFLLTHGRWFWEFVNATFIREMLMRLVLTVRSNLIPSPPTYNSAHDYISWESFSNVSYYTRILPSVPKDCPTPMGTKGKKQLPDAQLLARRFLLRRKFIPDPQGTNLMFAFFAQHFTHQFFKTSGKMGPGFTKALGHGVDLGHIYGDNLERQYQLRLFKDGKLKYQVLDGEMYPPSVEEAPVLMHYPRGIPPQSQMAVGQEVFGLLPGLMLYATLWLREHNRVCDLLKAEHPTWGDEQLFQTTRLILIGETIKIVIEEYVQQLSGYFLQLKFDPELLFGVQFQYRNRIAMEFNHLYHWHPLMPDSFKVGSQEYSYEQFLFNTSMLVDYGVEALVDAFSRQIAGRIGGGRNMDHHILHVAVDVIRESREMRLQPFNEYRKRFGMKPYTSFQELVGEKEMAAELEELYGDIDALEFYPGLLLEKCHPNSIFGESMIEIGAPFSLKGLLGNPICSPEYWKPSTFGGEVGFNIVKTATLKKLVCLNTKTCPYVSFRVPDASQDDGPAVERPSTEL

O=C(C=Cc1ccc(O)c(O)c1)OCC=Cc1ccccc1 (stereo in doubt) [Compound 4, (E)-(Z)-3-phenylallyl 3-(3,4-dihydroxyphenyl)acrylate]
IC50 [1]: 760 nM

O=C(/C=C/c1ccc(O)c(O)c1)OCCCCCc1ccccc1 [Compound 40, (E)-5-phenylpentyl 3-(3,4-dihydroxyphenyl)acrylate]
remaining activity at 1 µM [2, 6]: 37.8%
remaining activity at 1 µM [2, 7]: 86.4%
remaining activity at 1 µM ([2]; read-out: Avg % of control): 62.1%
IC50 [1]: 530 nM

O=C(/C=C/c1ccc(O)c(O)c1)OC/C=C/c1ccccc1 [Compound 31, (E)-cinnamyl 3-(3,4-dihydroxyphenyl)acrylate]
IC50 [1]: 1030 nM

O=C(/C=C/c1ccc(O)c(O)c1)NCCCCc1ccccc1 [Compound 56, (E)-3-(3,4-dihydroxyphenyl)-N-(4-phenylbutyl)acrylamide]
IC50 [1]: 920 nM

C=C(C)CCOC(=O)/C=C/c1ccc(O)c(O)c1 [Compound 17, (E)-3-methylbut-3-en-1-yl 3-(3,4-dihydroxyphenyl)acrylate]
IC50 [1]: 860 nM

O=C(/C=C/c1ccc(O)c(O)c1)OCCCCc1ccccc1 [Compound 39, (E)-4-phenylbutyl 3-(3,4-dihydroxyphenyl)acrylate]
remaining activity at 1 µM [2, 6]: 62.9%
remaining activity at 1 µM [2, 7]: 90.2%
remaining activity at 1 µM ([2]; read-out: Avg % of control): 76.6%
IC50 [1]: 600 nM

COc1ccc(CCOC(=O)/C=C/c2ccc(O)c(O)c2)cc1 [Compound 22, (E)-4-methoxyphenethyl 3-(3,4-dihydroxyphenyl)acrylate]
inhibition at 1 µM [3]: 39.6%

Cc1ccc(CCOC(=O)/C=C/c2ccc(O)c(O)c2)cc1 [Compound 21, (E)-4-methylphenethyl 3-(3,4-dihydroxyphenyl)acrylate]
inhibition at 1 µM [3]: 44.6%

O=C(/C=C/c1ccc(O)c(O)c1)OCCc1ccc(F)cc1 [Compound 20, (E)-4-fluorophenethyl 3-(3,4-dihydroxyphenyl)acrylate]
inhibition at 1 µM [3]: 37.2%

O=C(CCc1ccc(O)c(O)c1)OCCCCCc1ccccc1 [Compound 2, 5-phenylpentyl 3-(3,4-dihydroxyphenyl)propanoate]
IC50 [4]: 2800 nM
IC50 [1]: 860 nM

O=C(CCc1ccc(O)c(O)c1)OCCCCc1ccccc1 [Compound 1, 4-phenylbutyl 3-(3,4-dihydroxyphenyl)propanoate]
IC50 [1]: 870 nM

O=C(/C=C/c1ccc(O)c(O)c1)OCC(c1ccccc1)c1ccccc1 [Compound 27, (E)-2,2-diphenylethyl 3-(3,4-dihydroxyphenyl)acrylate]
IC50 [1]: 720 nM

O=C(/C=C/c1ccc(O)c(O)c1)OCCc1ccccc1 [CAPE, caffeic acid phenethyl ester, reference compound]
IC50 [4]: 3400 nM
IC50 [1]: 840 to 1100 nM
IC50 [5]: 650 to 1200 nM

O=C(Cc1ccc(O)c(O)c1)OCCc1ccccc1 [Compound 34, phenethyl 2-(3,4-dihydroxyphenyl)acetate]
inhibition at 1 µM [3]: < 20%

O=C(/C=C/c1ccc(O)c(O)c1)NCCCc1ccccc1 [Compound 55, (E)-3-(3,4-dihydroxyphenyl)-N-(3-phenylpropyl)acrylamide]
remaining activity at 1 µM [2, 6]: 103%
remaining activity at 1 µM [2, 7]: 101%
remaining activity at 1 µM ([2]; read-out: Avg % of control): 102%
IC50 [1]: 1600 nM

O=C(CCc1ccc(O)c(O)c1)OCCCc1ccccc1 [Compound 33, 3-phenylpropyl 3-(3,4-dihydroxyphenyl)propanoate]
remaining activity at 1 µM [2, 6]: 7.6%
remaining activity at 1 µM [2, 7]: 45.3%
remaining activity at 1 µM ([2]; read-out: Avg % of control): 26.4%
IC50 [1]: 890 nM

O=C(Cc1ccc(O)c(O)c1)OCCCc1ccccc1 [Compound 35, 3-phenylpropyl 2-(3,4-dihydroxyphenyl)acetate]
IC50 [1]: 790 nM

O=C(OCCc1ccccc1)c1cc(O)c(O)c(O)c1 [Compound 38, phenethyl 3,4,5-trihydroxybenzoate]
IC50 [4]: 2800 nM
IC50 [1]: 790 nM

COc1cc(/C=C/C(=O)OCCc2ccccc2)cc(OC)c1O [Compound 45, (E)-phenethyl 3-(4-hydroxy-3,5-dimethoxyphenyl)acrylate]
IC50 [1]: 300 nM

O=C(CCc1ccc(O)c(O)c1)OCCCCCCc1ccccc1 [Compound 3, 6-phenylhexyl 3-(3,4-dihydroxyphenyl)propanoate]
IC50 [4]: 2400 nM
IC50 [1]: 510 nM

O=C(/C=C/c1ccc(O)c(O)c1)OCCCc1ccccc1 [Compound 25, (E)-3-phenylpropyl 3-(3,4-dihydroxyphenyl)acrylate]
remaining activity at 1 µM [2, 6]: 34.9%
remaining activity at 1 µM [2, 7]: 81.3%
remaining activity at 1 µM ([2]; read-out: Avg % of control): 58.1%
IC50 [1]: 590 to 820 nM

O=C(/C=C/c1ccc(O)c(O)c1)OCCCCCCc1ccccc1 [Compound 41, (E)-6-phenylhexyl 3-(3,4-dihydroxyphenyl)acrylate]
IC50 [1]: 840 nM

O=C(/C=C/c1ccc(O)c(O)c1)CCc1ccccc1 [Compound 59, (E)-1-(3,4-dihydroxyphenyl)-5-phenylpent-1-en-3-one]
IC50 [1]: 840 nM

O=C(CCc1ccc(O)c(O)c1)OCCc1ccccc1 [Compound 32, phenethyl 3-(3,4-dihydroxyphenyl)propanoate]
remaining activity at 1 µM [2, 6]: 34.3%
remaining activity at 1 µM [2, 7]: 69%
remaining activity at 1 µM ([2]; read-out: Avg % of control): 51.6%
IC50 [1]: 1000 nM
inhibition at 1 µM [3]: 42%

COc1cc(/C=C/C(=O)OCCCc2ccccc2)cc(OC)c1O [Compound 6, (E)-3-phenylpropyl 3-(4-hydroxy-3,5-dimethoxyphenyl)acrylate]
IC50 [1]: 350 nM

O=C(OCCc1ccccc1)c1ccc(O)c(O)c1 [Compound 36, phenethyl 3,4-dihydroxybenzoate]
inhibition at 1 µM [3]: < 20%
